Measured values from ChEMBL document CHEMBL1667853, “Design and synthesis of potent Gram-negative specific LpxC inhibitors” (Bioorg Med Chem Lett, 2011).
≈ marks a conversion by molar mass, not a printed value.

Legend:
[1] = system: Acinetobacter calcoaceticus; assay: Antimicrobial activity against wild type Acinetobacter calcoaceticus by broth dilution assay; type: functional
Klebsiella pneumoniae [2] = assay: Antimicrobial activity against ESBL producing Klebsiella pneumoniae by broth dilution assay; type: functional
[3] = target: T1, UDP-3-O-acyl-N-acetylglucosamine deacetylase (Escherichia coli K-12, UniProt P0A725); assay: Inhibition of Escherichia coli LpxC
T1 sequence (P0A725 whole entry): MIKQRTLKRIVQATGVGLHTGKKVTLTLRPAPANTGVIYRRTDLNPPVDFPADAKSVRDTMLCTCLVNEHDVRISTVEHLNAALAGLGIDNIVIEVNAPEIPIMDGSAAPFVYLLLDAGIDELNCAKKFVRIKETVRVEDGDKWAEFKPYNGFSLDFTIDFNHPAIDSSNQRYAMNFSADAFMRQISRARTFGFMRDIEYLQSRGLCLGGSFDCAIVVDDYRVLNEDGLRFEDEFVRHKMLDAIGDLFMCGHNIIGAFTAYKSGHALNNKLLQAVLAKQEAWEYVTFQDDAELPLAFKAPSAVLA

[4] = system: Stenotrophomonas maltophilia; assay: Antimicrobial activity against wild type Stenotrophomonas maltophilia by broth dilution assay; type: functional
Pseudomonas aeruginosa [5] = assay: Antimicrobial activity against wild type Pseudomonas aeruginosa by broth dilution assay; type: functional
Escherichia coli [6] = assay: Antimicrobial activity against ESBL producing Escherichia coli by broth dilution assay; type: functional
Proteus vulgaris = assay: Antimicrobial activity against wild type Proteus vulgaris by broth dilution assay; type: functional
Klebsiella aerogenes = assay: Antimicrobial activity against wild type Enterobacter aerogenes by broth dilution assay; type: functional
Escherichia coli [7] = assay: Antimicrobial activity against Escherichia coli ATCC 25922 by broth dilution assay; type: functional
Serratia marcescens = assay: Antimicrobial activity against wild type Serratia marcescens by broth dilution assay; type: functional
Enterobacter cloacae = assay: Antimicrobial activity against ESBL producing Enterobacter cloacae by broth dilution assay; type: functional
Escherichia coli [8] = assay: Antimicrobial activity against multidrug-resistant Escherichia coli by broth dilution assay; type: functional
Acinetobacter baumannii = assay: Antimicrobial activity against wild type Acinetobacter baumannii by broth dilution assay; type: functional
Klebsiella pneumoniae [9] = assay: Antimicrobial activity against wild type Klebsiella pneumoniae by broth dilution assay; type: functional
Escherichia coli [10] = assay: Antimicrobial activity against wild type Escherichia coli by broth dilution assay; type: functional
Pseudomonas aeruginosa [11] = assay: Antimicrobial activity against multidrug-resistant Pseudomonas aeruginosa by broth dilution assay; type: functional
Escherichia coli [12] = assay: Antimicrobial activity against Escherichia coli HS294 by broth dilution assay; type: functional
[13] = Inhibition of Aquifex aeolicus LpxC

## C[C@@H](O)[C@@H](NC(=O)N1CCC(c2ccc(-c3ccccc3)cc2)CC1)C(=O)NO
[1]
  MIC: > 100 µg/mL
Klebsiella pneumoniae [2]
  MIC: 12.5 µg/mL (≈ 31.4 µM)
[3]
  IC50: 13.8 nM
[4]
  MIC: > 100 µg/mL
Pseudomonas aeruginosa [5]
  MIC: 3.13 µg/mL (≈ 7.87 µM)
Escherichia coli [6]
  MIC: 3.13 µg/mL (≈ 7.87 µM)
Proteus vulgaris
  MIC: 3.13 µg/mL (≈ 7.87 µM)
Klebsiella aerogenes
  MIC: > 100 µg/mL
Escherichia coli [7]
  MIC: 6.25 µg/mL (≈ 15.7 µM)
Serratia marcescens
  MIC: 6.25 µg/mL (≈ 15.7 µM)
Enterobacter cloacae
  MIC: 3.13 µg/mL (≈ 7.87 µM)
Escherichia coli [8]
  MIC: 3.13 µg/mL (≈ 7.87 µM)
Acinetobacter baumannii
  MIC: > 100 µg/mL
Klebsiella pneumoniae [9]
  MIC: > 100 µg/mL
Escherichia coli [10]
  MIC: 1.56 µg/mL (≈ 3.92 µM)
Pseudomonas aeruginosa [11]
  MIC: > 12.5 µg/mL
Escherichia coli [12]
  MIC: 0.8 µg/mL (≈ 2.01 µM)

## CCCCCCCOc1cccc(C(=O)O)c1
[13]
  Kd: 2000 nM
